In paper PMC10537280, “Chemo-/Regio-Selective Synthesis of Novel Functionalized Spiro[pyrrolidine-2,3′-oxindoles] under Microwave Irradiation and Their Anticancer Activity” (Molecules, 2023):
Where two headings read alike, the source gives them in different places.

Tests used:
[1] = tested on: human lung A549 cancer cell lines; assay: MTT cytotoxicity assay, lung cancer A549 cells; type: cell-based; details: for IC50: Homo sapiens, read-out: A549 Cells IC50; for S.I. Selectivity index lung (IC50 normal cells/IC50 cancer cells): BEAS-2B IC50 / A549 IC50
Experimental: (§1) Adenocarcinomic human alveolar basal epithelial (A549) and human hepatoma (HepG2) cancer cell lines, immortalized normal human liver (LO2), human bronchial epithelial (BEAS-2B cells were purchased from [NT], Manassas, VA, USA). […] Invitrogen, Waltham, MA, USA). All cells were incubated at 37 °C in a 5% humidified CO2 incubator). All test compounds were dissolved in DMSO at a final concentration of 50 mM and stored at -20 °C before use. Cytotoxicity was assessed by the MTT (5 mg/mL) assay, as described previously. Briefly, 5 × 10^3 cells per well were seeded in 96-well plates before drug treatments. […] Cells without drug treatment were used as controls. Subsequently, 10 μL of 5 mg/mL MTT solution was added to each well and incubated at 37 °C for 4 h, followed by the addition of 100 μL solubilization buffer (12 mM HCl in a solution of 10% SDS) and overnight incubation. The absorbance, A570 nm, was then determined in each well on the next day. The percentage of cell viability was calculated using the expression: % viability = Atreated/Acontrol × 100, and was given as cytotoxicity (Table 2 and Table 3; […]

[2] = tested on: immortalized lung BEAS-2B normal cell lines; assay: MTT cytotoxicity assay, normal lung BEAS-2B cells; type: cell-based; details: Homo sapiens, 72 h, read-out: BEAS-2B Cells IC50
Experimental: as §1

[3] = tested on: human HepG2 cancer cell lines; assay: MTT cytotoxicity assay, liver cancer HepG2 cells; type: cell-based; details: for IC50: read-out: HepG2 Cells IC50; for S.I. Selectivity index liver (IC50 normal cells/IC50 cancer cells): LO2 IC50 / HepG2 IC50
Experimental: as §1

[4] = tested on: immortalized liver LO2 normal cell lines; assay: MTT cytotoxicity assay, normal liver LO2 cells; type: cell-based; details: Homo sapiens, read-out: LO2 Cells IC50
Experimental: as §1

[5] = A549, MTT, 72 h, 0.19–100 μM, means of at least three independent experiments in duplicates
[6] = MTT, 0.19–100 μM, normal lung cells
[7] = Homo sapiens, HepG2, 72 h, MTT, 72 h, 0.19–100 μM, means of at least three independent experiments in duplicates
[8] = L02, MTT, 72 h, 0.19–100 μM, normal liver cells

Structure (SMILES)	IC50 ([1]; A549, 72 h)	IC50 [2]	IC50 ([3]; Homo sapiens, HepG2, 72 h)	S.I. Selectivity index liver (IC50 normal cells/IC50 cancer cells) [3]	IC50 ([4]; L02, 72 h)	S.I. Selectivity index lung (IC50 normal cells/IC50 cancer cells) [1]	IC50 [1, 5]	IC50 [2, 6]	IC50 [3, 7]	IC50 [4, 8]	melting point	IC50 ([3]; MTT, 72 h, 0.19–100 μM, means of at least three independent experiments in duplicates)
CCN(CC)CCCC(C)Nc1ccnc2cc(Cl)ccc12 (stereo not drawn) [CQ, chloroquine, reference compound]	100 µM	3.07 µM	49.02 ± 0.4 µM	0.30	15 µM	–	–	–	–	–	–	–
COc1ccc(OC)c(C2C([N+](=O)[O-])C(CC(C)C)NC23C(=O)Nc2ccc(Br)cc23)c1 (stereo not drawn) [Compound 4c, 5-bromo-3′-(2,5-dimethoxyphenyl)-5′-isobutyl-4′-nitrospiro[indoline-3,2′-pyrrolidin]-2-one]	–	–	–	0.62	–	0.96	35 µM	33.5 µM	60.3 µM	37.6 µM	142 to 144 °C	–
COc1ccc(OC)c(C2C([N+](=O)[O-])C3CCCN3C23C(=O)Nc2ccccc23)c1 (stereo not drawn) [Compound 4s, 2′-(2,5-dimethoxyphenyl)-1′-nitro-1′,2′,5′,6′,7′,7a′-hexahydrospiro[indoline-3,3′-pyrrolizin]-2-one]	–	–	–	–	–	–	> 100 µM	> 100 µM	> 100 µM	> 100 µM	174 to 176 °C	–
COc1cc(C2C([N+](=O)[O-])C(C)NC23C(=O)Nc2ccc(Br)cc23)ccc1OCc1ccccc1 (stereo not drawn) [Compound 4m, 3′-(4-(benzyloxy)-3-methoxyphenyl)-5-bromo-5′-methyl-4′-nitrospiro[indoline-3,2′-pyrrolidin]-2-one]	–	–	–	0.88	–	1.38	45.9 µM	63.5 µM	41.6 µM	36.6 µM	168 to 170 °C	–
COc1ccc(OC)c(C2C([N+](=O)[O-])C(C(C)C)NC23C(=O)Nc2ccccc23)c1 (stereo not drawn) [Compound 4d, 3′-(2,5-dimethoxyphenyl)-5′-isopropyl-4′-nitrospiro[indoline-3,2′-pyrrolidin]-2-one]	–	–	–	–	–	–	> 100 µM	> 100 µM	> 100 µM	> 100 µM	210 to 212 °C	–
COc1ccc(C2C([N+](=O)[O-])C3CCCN3C23C(=O)Nc2ccccc23)cc1OCc1ccccc1 (stereo not drawn) [Compound 4p, 2′-(3-(benzyloxy)-4-methoxyphenyl)-1′-nitro-1′,2′,5′,6′,7′,7a′-hexahydrospiro[indoline-3,3′-pyrrolizin]-2-one]	–	–	–	–	–	–	> 100 µM	> 100 µM	> 100 µM	> 100 µM	83 to 85 °C	–
COc1ccc(C2C([N+](=O)[O-])C(C)NC23C(=O)Nc2ccccc23)cc1OC (stereo not drawn) [Compound 4i, 3′-(3,4-dimethoxyphenyl)-5′-methyl-4′-nitrospiro[indoline-3,2′-pyrrolidin]-2-one]	–	–	–	–	–	–	> 100 µM	> 100 µM	> 100 µM	> 100 µM	165 to 167 °C	–
COc1ccc(OC)c(C2C([N+](=O)[O-])C(CC(C)C)NC23C(=O)Nc2ccccc23)c1 (stereo not drawn) [Compound 4a, 3′-(2,5-dimethoxyphenyl)-5′-isobutyl-4′-nitrospiro[indoline-3,2′-pyrrolidin]-2-one]	–	–	–	–	–	–	> 100 µM	> 100 µM	> 100 µM	> 100 µM	182 to 184 °C	–
COc1ccc(C2C([N+](=O)[O-])C3CCCN3C23C(=O)Nc2ccc(Br)cc23)cc1OCc1ccccc1 (stereo not drawn) [Compound 4q, 2′-(3-(benzyloxy)-4-methoxyphenyl)-5-bromo-1′-nitro-1′,2′,5′,6′,7′,7a′-hexahydrospiro[indoline-3,3′-pyrrolizin]-2-one]	–	–	–	0.54	–	–	47.9 µM	> 100 µM	85.6 µM	46.8 µM	98 to 100 °C	86.5 µM
COc1ccc(C2C([N+](=O)[O-])C(CC(C)C)NC23C(=O)Nc2ccc(Br)cc23)cc1OCc1ccccc1 (stereo not drawn) [Compound 4f, 3′-(3-(benzyloxy)-4-methoxyphenyl)-5-bromo-5′-isobutyl-4′-nitrospiro[indoline-3,2′-pyrrolidin]-2-one]	–	–	–	–	–	–	41.1 µM	> 100 µM	82 µM	> 100 µM	95 to 97 °C	–
COc1ccc(C2C([N+](=O)[O-])C(C)NC23C(=O)Nc2ccc(Br)cc23)cc1OC (stereo not drawn) [Compound 4j, 5-bromo-3′-(3,4-dimethoxyphenyl)-5′-methyl-4′-nitrospiro[indoline-3,2′-pyrrolidin]-2-one]	–	–	–	–	–	–	> 100 µM	> 100 µM	> 100 µM	> 100 µM	155 to 157 °C	–
C[C@H]1[C@H](OC(=O)CCC(=O)O)O[C@@H]2O[C@@]3(C)CC[C@H]4[C@H](C)CC[C@@H]1[C@@]24OO3 [AS, artesunic acid, reference compound]	–	–	–	2.01	–	0.76	9.85 µM	7.53 µM	4.09 ± 0.4 µM	8.25 µM	–	–
COc1ccc(OC)c(C2C([N+](=O)[O-])C(C)NC23C(=O)Nc2ccccc23)c1 (stereo not drawn) [Compound 4b, 3′-(2,5-dimethoxyphenyl)-5′-methyl-4′-nitrospiro[indoline-3,2′-pyrrolidin]-2-one]	–	–	–	–	–	–	> 100 µM	> 100 µM	> 100 µM	> 100 µM	150 to 152 °C	–
COc1cc(C2C([N+](=O)[O-])C3CCCN3C23C(=O)Nc2ccc(Br)cc23)ccc1OCc1ccccc1 (stereo not drawn) [Compound 4o, 2′-(4-(benzyloxy)-3-methoxyphenyl)-5-bromo-1′-nitro-1′,2′,5′,6′,7′,7a′-hexahydrospiro[indoline-3,3′-pyrrolizin]-2-one]	–	–	–	–	–	–	> 100 µM	> 100 µM	> 100 µM	> 100 µM	95 to 97 °C	–
COc1ccc(C2C([N+](=O)[O-])C(CC(C)C)NC23C(=O)Nc2ccccc23)cc1OC (stereo not drawn) [Compound 4h, 3′-(3,4-dimethoxyphenyl)-5′-isobutyl-4′-nitrospiro[indoline-3,2′-pyrrolidin]-2-one]	–	–	–	–	–	–	> 100 µM	> 100 µM	> 100 µM	> 100 µM	73 to 75 °C	–
C[C@@H]1CC[C@H]2[C@@H](C)C(=O)O[C@@H]3O[C@@]4(C)CC[C@@H]1[C@]32OO4 [ART, artemisinin, reference compound]	–	–	–	–	–	–	100 µM	100 µM	> 100 µM	> 100 µM	–	–
COc1ccc(C2C([N+](=O)[O-])C3CCCN3C23C(=O)Nc2ccccc23)cc1OC (stereo not drawn) [Compound 4v, 2′-(3,4-dimethoxyphenyl)-1′-nitro-1′,2′,5′,6′,7′,7a′-hexahydrospiro[indoline-3,3′-pyrrolizin]-2-one]	–	–	–	–	–	–	> 100 µM	> 100 µM	> 100 µM	> 100 µM	175 to 177 °C	–
COc1ccc(C2C([N+](=O)[O-])C3CCCN3C23C(=O)Nc2ccccc23)cc1 (stereo not drawn) [Compound 4r, 2′-(4-methoxyphenyl)-1′-nitro-1′,2′,5′,6′,7′,7a′-hexahydrospiro[indoline-3,3′-pyrrolizin]-2-one]	–	–	–	–	–	–	> 100 µM	> 100 µM	> 100 µM	> 100 µM	116 to 118 °C	–
